# Several values for one entry are separate records, joined by “and”; a condition that tells them apart may be missing. Equal entries are not always repeated. Where two headings read alike, the source gives them in different places. Marks after values point to notes of the source that are not given here.
# Key:
# [1] = system: halofuginone-induced P. falciparum (elevated proline homeostasis); assay: P. falciparum ABS growth assay, SYBR Green, 72 h, halofuginone-induced parasites; type: cell-based, Plasmodium falciparum; conditions: for parasite growth, dose-response point: Halofuginone-Induced (HFG-Induced)
# Summary of the method: (§1)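 Dd2-derived erythrocytic-stage parasites at 1% parasitemia and 1% hematocrit in RPMI + 0.5% Albumax were exposed to compounds in triplicate dose-response. Controls were 10 μM dihydroartemisinin (kill) and no-compound wells (growth). Growth was read by SYBR Green 1 fluorescence after 72 h and used to derive EC50.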
# [2] = system: HFGR-I P. falciparum (elevated proline homeostasis and PfcProRS^L482H); assay: P. falciparum ABS growth assay, SYBR Green, 72 h, HFGR-I parasites; type: cell-based, Plasmodium falciparum; conditions: for parasite growth, dose-response point: HFGR-I
# Summary of the method: as §1
# PfcProRS = target: T1, PfcProRS (Plasmodium falciparum, UniProt Q8I5R7); type: binding; conditions: for Normalized response, dose-response replicates (SI Fig 14): replicates 1-3
# T1 construct: made in house; host or cells: E. coli SoluBL-21
# T1 sequence (Q8I5R7 249-746): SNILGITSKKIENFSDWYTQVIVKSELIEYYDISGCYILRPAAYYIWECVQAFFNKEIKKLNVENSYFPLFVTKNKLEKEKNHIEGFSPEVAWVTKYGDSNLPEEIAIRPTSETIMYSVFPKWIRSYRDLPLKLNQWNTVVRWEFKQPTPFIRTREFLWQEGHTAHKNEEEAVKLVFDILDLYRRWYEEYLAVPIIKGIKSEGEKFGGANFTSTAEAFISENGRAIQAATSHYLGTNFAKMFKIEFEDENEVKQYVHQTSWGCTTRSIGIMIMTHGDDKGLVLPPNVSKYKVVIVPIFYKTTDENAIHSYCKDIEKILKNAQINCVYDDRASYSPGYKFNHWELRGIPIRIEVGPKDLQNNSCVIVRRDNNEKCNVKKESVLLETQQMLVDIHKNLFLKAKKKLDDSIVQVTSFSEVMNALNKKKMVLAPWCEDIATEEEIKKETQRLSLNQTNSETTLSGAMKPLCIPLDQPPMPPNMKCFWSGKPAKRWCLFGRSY
# HsProRS = HsProRS (Homo sapiens, UniProt P07814); assay: TR-FRET ligand displacement assay with tracer MAT379 (CoraFluor-1-Halo and anti-His6 antibody formats); type: binding; set-up: made in house; host or cells: E. coli SoluBL-21; conditions: for normalized TR-FRET signal (dose-response replicates): SI Fig 17a
# Chain of HsProRS (P07814 996-1512): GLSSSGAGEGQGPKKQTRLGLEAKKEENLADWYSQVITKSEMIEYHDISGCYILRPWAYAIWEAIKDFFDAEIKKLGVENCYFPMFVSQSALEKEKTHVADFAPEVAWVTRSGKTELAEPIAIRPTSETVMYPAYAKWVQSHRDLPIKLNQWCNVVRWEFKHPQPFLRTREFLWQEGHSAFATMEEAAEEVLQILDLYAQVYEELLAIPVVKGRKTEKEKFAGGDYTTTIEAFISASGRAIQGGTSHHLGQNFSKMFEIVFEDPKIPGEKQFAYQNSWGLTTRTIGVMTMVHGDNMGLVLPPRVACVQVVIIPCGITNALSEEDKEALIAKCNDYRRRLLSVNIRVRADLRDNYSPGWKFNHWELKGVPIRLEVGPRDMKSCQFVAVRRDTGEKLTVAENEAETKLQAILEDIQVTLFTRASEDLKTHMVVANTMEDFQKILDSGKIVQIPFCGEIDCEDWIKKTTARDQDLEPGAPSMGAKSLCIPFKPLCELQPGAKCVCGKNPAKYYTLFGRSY
# P. falciparum Dd2-2D4 = assay: P. falciparum asexual blood stage (ABS) growth assay, SYBR Green, 72 h, wild-type parasites; type: cell-based, Plasmodium falciparum
# [3] = 10 μM, compound had <50% inhibition
# [4] = Log[inhibitor] (M) -5.000, series r4-r15
structure (smiles),measurement,setting,value
CC(C)(C)OC(=O)N1CCC[C@H]1C(=O)NC1CCN(C(=O)Nc2nccnc2C(=O)NC2Cc3ccccc3C2)CC1 [compound 31],"percent growth at 10 μM, Dd2 Halofuginone-induced",[1]; [3],98%^b
same,"parasite growth, dose-response point",[1]; [4],103 and 98 and 92
same,"parasite growth, dose-response point",[1]; Log[inhibitor] (M) -5.301,107 and 109 and 115
same,"parasite growth, dose-response point",[1]; Log[inhibitor] (M) -5.602,124 and 110 and 116
same,"parasite growth, dose-response point",[1]; Log[inhibitor] (M) -5.903,117 and 106 and 104
same,"parasite growth, dose-response point",[1]; Log[inhibitor] (M) -6.204,111 and 107 and 99
same,"parasite growth, dose-response point",[1]; Log[inhibitor] (M) -6.505,98 (2×) and 104
same,"parasite growth, dose-response point",[1]; Log[inhibitor] (M) -6.806,109 and 112 and 103
same,"parasite growth, dose-response point",[1]; Log[inhibitor] (M) -7.107,105 and 103 and 108
same,"parasite growth, dose-response point",[1]; Log[inhibitor] (M) -7.408,116 and 109 and 103
same,"parasite growth, dose-response point",[1]; Log[inhibitor] (M) -7.709,115 and 100 and 119
same,"parasite growth, dose-response point",[1]; Log[inhibitor] (M) -8.010,104 and 100 and 101
same,"parasite growth, dose-response point",[1]; Log[inhibitor] (M) -8.311,107 and 102 and 101
same,EC50,"[1]; Plasmodium falciparum, DD2, halofuginone-induced, bound given in μM, read-out: Dd2 EC50 halofuginone-induced, bound",> 10 µM
same,"% signal at 10 μM, halofuginone-induced","[1]; halofuginone-induced, 10 μM",97.7%
same,"percent growth at 10 μM, Dd2 HFGR-I",[2]; [3],103%^b
same,"% signal at 10 μM, HFGR1","[2]; HFGR1, 10 μM",103%
same,"parasite growth, dose-response point",[2]; [4],106 and 104 and 99
same,"parasite growth, dose-response point",[2]; Log[inhibitor] (M) -5.301,101 and 100
same,"parasite growth, dose-response point",[2]; Log[inhibitor] (M) -5.602,105 and 102 and 104
same,"parasite growth, dose-response point",[2]; Log[inhibitor] (M) -5.903,95 and 102 and 101
same,"parasite growth, dose-response point",[2]; Log[inhibitor] (M) -6.204,104 and 99 and 98
same,"parasite growth, dose-response point",[2]; Log[inhibitor] (M) -6.505,99 and 95 and 97
same,"parasite growth, dose-response point",[2]; Log[inhibitor] (M) -6.806,108 and 106 and 107
same,"parasite growth, dose-response point",[2]; Log[inhibitor] (M) -7.107,106 and 105
same,"parasite growth, dose-response point",[2]; Log[inhibitor] (M) -7.408,109 and 104 and 106
same,"parasite growth, dose-response point",[2]; Log[inhibitor] (M) -7.709,108 and 106
same,"parasite growth, dose-response point",[2]; Log[inhibitor] (M) -8.010,103 and 105
same,"parasite growth, dose-response point",[2]; Log[inhibitor] (M) -8.311,108 and 105 and 104
same,EC50,"[2]; Plasmodium falciparum, DD2, HFGR1, bound given in μM, read-out: Dd2 EC50 HFGR1, bound",> 10 µM
same,"Normalized response, dose-response replicates (SI Fig 14)",PfcProRS; Log[inhibitor] (M) -5.000,5.64E-01 and 5.99E-01 and 6.18E-01
same,"Normalized response, dose-response replicates (SI Fig 14)",PfcProRS; Log[inhibitor] (M) -5.301,6.96E-01 and 6.54E-01 and 6.55E-01
same,"Normalized response, dose-response replicates (SI Fig 14)",PfcProRS; Log[inhibitor] (M) -5.601,8.77E-01 and 8.39E-01 and 9.75E-01
same,"Normalized response, dose-response replicates (SI Fig 14)",PfcProRS; Log[inhibitor] (M) -5.904,9.20E-01 and 8.45E-01 and 8.88E-01
same,"Normalized response, dose-response replicates (SI Fig 14)",PfcProRS; Log[inhibitor] (M) -6.208,9.89E-01 and 9.27E-01 and 1.07E+00
same,"Normalized response, dose-response replicates (SI Fig 14)",PfcProRS; Log[inhibitor] (M) -6.509,1.00E+00 and 9.45E-01 and 8.96E-01
same,"Normalized response, dose-response replicates (SI Fig 14)",PfcProRS; Log[inhibitor] (M) -6.796,8.17E-01 and 9.17E-01 and 9.69E-01
same,"Normalized response, dose-response replicates (SI Fig 14)",PfcProRS; Log[inhibitor] (M) -7.108,9.90E-01 and 9.44E-01 and 8.89E-01
same,"Normalized response, dose-response replicates (SI Fig 14)",PfcProRS; Log[inhibitor] (M) -7.409,9.05E-01 and 8.67E-01 and 8.30E-01
same,"Normalized response, dose-response replicates (SI Fig 14)",PfcProRS; Log[inhibitor] (M) -7.710,9.25E-01 and 1.08E+00 and 9.24E-01
same,"Normalized response, dose-response replicates (SI Fig 14)",PfcProRS; Log[inhibitor] (M) -8.000,8.19E-01 and 1.06E+00 and 9.65E-01
same,"Normalized response, dose-response replicates (SI Fig 14)",PfcProRS; Log[inhibitor] (M) -8.301,1.15E+00 and 1.07E+00 (2×)
same,"Normalized response, dose-response replicates (SI Fig 14)",PfcProRS; Log[inhibitor] (M) -8.602,1.06E+00 and 1.03E+00 and 1.05E+00
same,"Normalized response, dose-response replicates (SI Fig 14)",PfcProRS; Log[inhibitor] (M) -9.000,8.95E-01 and 9.81E-01 and 1.04E+00
same,"Normalized response, dose-response replicates (SI Fig 14)",PfcProRS; Log[inhibitor] (M) -9.301,1.02E+00 and 9.15E-01 and 1.14E+00
same,PfcProRS -- best Kd,"PfcProRS; SI Fig 16a, values on -log scale",5.701
same,"HsProRS % signal at 10 μM, + 100 μM proline","HsProRS; + 100 μM proline, 10 μM",59.4%
same,Kd,"HsProRS; HsProRS (KD [nM]) −, absence of substrates, 250 nM MAT379",5130 nM
same,Kd,"HsProRS; HsProRS KD + 100 μM proline, bound, + 100 μM proline, bound given in μM",> 5090 nM
same,"normalised signal, dose-response point (Fig 4d)","HsProRS; Log[inhibitor] (M) -5.000, series of 31",4.79E-01 and 4.46E-01
same,"normalised signal, dose-response point (Fig 4d)",HsProRS; Log[inhibitor] (M) -5.286,6.67E-01 and 6.31E-01
same,"normalised signal, dose-response point (Fig 4d)",HsProRS; Log[inhibitor] (M) -5.574,7.84E-01 and 7.77E-01
same,"normalised signal, dose-response point (Fig 4d)",HsProRS; Log[inhibitor] (M) -5.862,8.87E-01 and 8.96E-01
same,"normalised signal, dose-response point (Fig 4d)",HsProRS; Log[inhibitor] (M) -6.151,9.64E-01 and 9.65E-01
same,"normalised signal, dose-response point (Fig 4d)",HsProRS; Log[inhibitor] (M) -6.428,9.34E-01 and 9.44E-01
same,"normalised signal, dose-response point (Fig 4d)",HsProRS; Log[inhibitor] (M) -6.729,9.61E-01 and 9.47E-01
same,"normalised signal, dose-response point (Fig 4d)",HsProRS; Log[inhibitor] (M) -7.006,9.42E-01 and 8.63E-01
same,"normalised signal, dose-response point (Fig 4d)",HsProRS; Log[inhibitor] (M) -7.295,9.55E-01 and 9.92E-01
same,"normalised signal, dose-response point (Fig 4d)",HsProRS; Log[inhibitor] (M) -7.585,1.05E+00 and 9.07E-01
same,"normalised signal, dose-response point (Fig 4d)",HsProRS; Log[inhibitor] (M) -7.875,9.50E-01 and 9.36E-01
same,"normalised signal, dose-response point (Fig 4d)",HsProRS; Log[inhibitor] (M) -8.135,9.31E-01 and 9.40E-01
same,"normalised signal, dose-response point (Fig 4d)",HsProRS; Log[inhibitor] (M) -8.477,9.84E-01 and 9.46E-01
same,"normalised signal, dose-response point (Fig 4d)",HsProRS; Log[inhibitor] (M) -8.699,8.68E-01 and 9.88E-01
same,"normalised signal, dose-response point (Fig 4d)",HsProRS; Log[inhibitor] (M) -9.176,1.01E+00 and 1.00E+00
same,"normalised signal, dose-response point (Fig 4d)",HsProRS; Log[inhibitor] (M) -9.363,9.70E-01 and 9.49E-01
same,normalized TR-FRET signal (dose-response replicates),HsProRS; Log[inhibitor] (M) -5.000,3.75E-01 and 3.29E-01 and 2.94E-01
same,normalized TR-FRET signal (dose-response replicates),HsProRS; Log[inhibitor] (M) -5.301,5.13E-01 and 4.93E-01 and 4.68E-01
same,normalized TR-FRET signal (dose-response replicates),HsProRS; Log[inhibitor] (M) -5.601,7.38E-01 and 6.61E-01 and 6.36E-01
same,normalized TR-FRET signal (dose-response replicates),HsProRS; Log[inhibitor] (M) -5.904,7.87E-01 and 7.39E-01 and 7.57E-01
same,normalized TR-FRET signal (dose-response replicates),HsProRS; Log[inhibitor] (M) -6.208,8.48E-01 and 8.27E-01 and 8.24E-01
same,normalized TR-FRET signal (dose-response replicates),HsProRS; Log[inhibitor] (M) -6.509,8.55E-01 and 8.71E-01 and 8.75E-01
same,normalized TR-FRET signal (dose-response replicates),HsProRS; Log[inhibitor] (M) -6.796,8.61E-01 and 8.99E-01 and 9.13E-01
same,normalized TR-FRET signal (dose-response replicates),HsProRS; Log[inhibitor] (M) -7.108,8.48E-01 and 8.44E-01 and 8.72E-01
same,normalized TR-FRET signal (dose-response replicates),HsProRS; Log[inhibitor] (M) -7.409,9.07E-01 and 8.89E-01 and 8.65E-01
same,normalized TR-FRET signal (dose-response replicates),HsProRS; Log[inhibitor] (M) -7.710,8.96E-01 and 8.93E-01 and 8.29E-01
same,normalized TR-FRET signal (dose-response replicates),HsProRS; Log[inhibitor] (M) -8.000,9.41E-01 and 8.72E-01 and 9.37E-01
same,normalized TR-FRET signal (dose-response replicates),HsProRS; Log[inhibitor] (M) -8.301,8.90E-01 (2×) and 9.30E-01
same,normalized TR-FRET signal (dose-response replicates),HsProRS; Log[inhibitor] (M) -8.602,9.13E-01 and 9.30E-01 and 9.15E-01
same,normalized TR-FRET signal (dose-response replicates),HsProRS; Log[inhibitor] (M) -9.000,9.52E-01 and 8.88E-01 and 9.53E-01
same,normalized TR-FRET signal (dose-response replicates),HsProRS; Log[inhibitor] (M) -9.301,9.64E-01 and 9.01E-01 and 8.76E-01
same,"percent growth at 10 μM, Dd2 wt",P. falciparum Dd2-2D4; [3],102%^b
same,EC50,"P. falciparum Dd2-2D4; Plasmodium falciparum, wildtype (Dd2-2D4), bound given in μM, read-out: Dd2 EC50 wildtype (Dd2-2D4), bound",> 10 µM
same,"% signal at 10 μM, wildtype (Dd2-2D4)","P. falciparum Dd2-2D4; wildtype (Dd2-2D4), 10 μM",102%

# Source: PMC9403976, “Elucidating the path to Plasmodium prolyl-tRNA synthetase inhibitors that overcome halofuginone resistance” (Nature Communications, 2022)
